Literature values in patent publication US20030100464A1, “Dishwashing compositions containing alkylbenzenesulfonate surfactants” (priority 2001, published 2003).

B1: D96L: D96L lipolytic enzyme variant of the native lipase derived from Humicola lanuginosa (protein, UniProt O59952 23-291, looked up, variant D96L)
Lipase: EVSQDLFNQFNLFAQYSAAAYCGKNNDAPAGTNITCTGNACPEVEKADATFLYSFEDSGVGDVTGFLALDNTNKLIVLSFRGSRSIENWIGNLNFLLKEINDICSGCRGHDGFTSSWRSVADTLRQKVEDAVREHPDYRVVFTGHSLGGALATVAGADLRGNGYDIDVFSYGAPRVGNRAFAEFLTVQTGGTLYRITHTNDIVPRLPPREFGYSHSSPEYWIKSGTLVPVTRNDIVKIEGIDATGGNNQPNIPDIPAHLWYFGLIGTCL

How the values were obtained:
[1] = all-aqueous solution at 25° C., ionic strength 0.1 to 0.5 M
[2] = enzymes compared at 0.075 to 2.5 mg protein per liter

Molecule	pK1 [1]	pK2 [1]	improvement of lard stain removal efficiency, factor over the wild-type lipase [2]
CCC(N)CCN (stereo not drawn) [1,3 pentane diamine]	10.5	8.9	–
NCCCN [1,3 propane diamine]	10.5	8.8	–
NCCCCCCN [1,6 hexane diamine]	11	10	–
CC(CN)CCCN (stereo not drawn) [2-methyl 1,5 pentane diamine]	11.2	10.0	–
B1	–	–	4.4
